Key:
[1] = Elimination half-life of the active metabolite (II) in man; details: human, in vivo
[2] = 180-day mortality in heart failure patients with normal or impaired renal function (pooled levosimendan trials 3001021b and 3001030); type: in vivo, human; details: for 180-day mortality in levosimendan groups: heart failure patients, i.v. infusion 6 or 24 h
Protocol: In total, 701 heart failure patients from levosimendan trials 3001021b and 3001030 were included into the analysis to determine the effect of levosimendan on mortality in patients with normal or impaired renal function.
The study 3001021b compared levosimendan with dobutamine in a double-blind, parallel-group, randomised trial in 203 patients with low-output heart. Treatment with levosimendan (n=103) was started with a loading dose of 24 μg/kg infused over 10 minutes and followed by a continuous infusion of 0.1 μg/kg/min. For patients in whom the cardiac index had not increased by at least 30% compared with the baseline value at 2 hours, the dose was doubled to 0.2 μg/kg/min for levosimendan (n=69). Infusions were continued for totally 24 hours. Mortality was followed prospectively up to 31 days and retrospectively up to 180 days.
The study 3001030 evaluated the safety of levosimendan in patients with left ventricular failure after an acute myocardial infarction. The study was a placebo-controlled, double-blind, parallel-group, randomised, trial in 504 patients. Levosimendan was administered as a 10-minute loading dose followed by a continuous infusion for a total of 6 hours. The following doses were used: 6 μg/kg+0.1 μg/kg/min (n=103), 12 μg/kg+0.2 μg/kg/min (n=100), 24 μg/kg+0.2 μg/kg/min (n=99), 24 μg/kg+0.4 μg/kg/min (n=100) and similar placebo infusion (n=102). All-cause mortality was followed prospectively up to 14-days and retrospectively up to 180-days.
The patients combined from the above studies were classified according to their baseline renal function. The formula of Cockroft and Gault (Lafayette et al, 1997) was used to calculate the creatinine clearance (CLcr) values from the baseline serum creatinine) values as follows: [formula] [formula]

SMILES	half-life [1] [h]	Decrease in mortality versus control groups by renal function ([2]; 180-day, comparison of normal and impaired renal function)	180-day mortality in levosimendan groups ([2]; mild renal impairment (CLcr 50-80 ml/min)) [%]	180-day mortality in levosimendan groups ([2]; normal renal function (CLcr > 80 ml/min)) [%]
CC(=O)Nc1ccc(C2=NNC(=O)C[C@H]2C)cc1 [active metabolite (II), (R)-N-[4-(1,4,5,6-tetrahydro-4-methyl-6-oxo-3-pyridazinyl)phenyl]acetamide]	~72	–	–	–
CC1CC(=O)NN=C1c1ccc(NN=C(C#N)C#N)cc1 (single isomer, unassigned; (-)) [Levosimendan, (−)-enantiomer of [[4-(1,4,5,6-tetrahydro-4-methyl-6-oxo-3-pyridazinyl)phenyl]hydrazono]propanedinitrile]	–	decrease in mortality was highest in patients with impaired renal function	18	15

Source: patent US20060166994A1, “Method for treating renal failure” (priority 2003, published 2006)
